These are literature values, as cited in patent US20060251623A1, “Packaged virus-like particles” (priority 2003, published 2006).

Data set [1] concerns VLP-induced CTL responses. The note with it: TLR ligand alone compared with CpGs; Schwarz et al., (2003) Eur. J. Immunol., 33, 1465-1470.
For a further data set, the system named is blood cells. The note with it: Kuramoto E. et al., Japanese Journal Cancer Research 83, 1128-1131 (1992).

In the case of flagellin, the “Enhancement of VLP-induced CTL responses” value in data set [1] is reported as “failed to enhance VLP-induced CTL responses in a way similar to CpGs”.
Consider `CC(C)Cn1cnc2c(N)nc3ccccc3c21` [imiquimode], for which the “Enhancement of VLP-induced CTL responses” value in data set [1] is reported as “failed to enhance VLP-induced CTL responses in a way similar to CpGs”.
As to “GGGGGGGGGGGACGATCGTCGGGGGGGGGG [SEQ ID NO: 54]”, the “Stimulation of blood cells in vitro” value with blood cells is “able to stimulate blood cells in vitro”.
For “polyinosinic-polycytidylic acid [poly (I:C)]”, the “Enhancement of VLP-induced CTL responses” value in data set [1] is “failed to enhance VLP-induced CTL responses in a way similar to CpGs”.
